# Entries after “also recorded” stand apart in the source; their conditions may differ. Where two headings read alike, the source gives them in different places.
# Experiments:
# [1] = cited from earlier work
# [2] = molecular target: T1, ABCC4/MRP4 (Homo sapiens, UniProt O15439); assay: MRP4 vesicular transport: ATP-dependent DHEAS uptake into inverted HEK-293 membrane vesicles; format: biochemical; conditions: for ABCC4/MRP4 Type of effect: DHEAS 0.5 µM, 32 °C, HEK-293 vesicles; for inhibition at […]: up to 50 µM drug, read-out: maximum inhibition of MRP4-dependent substrate transport
# T1 construct: purchased Solvo Biotechnology (Budapest, Hungary); host or cells: HEK-293 cells
# T1 sequence (O15439 1-1325): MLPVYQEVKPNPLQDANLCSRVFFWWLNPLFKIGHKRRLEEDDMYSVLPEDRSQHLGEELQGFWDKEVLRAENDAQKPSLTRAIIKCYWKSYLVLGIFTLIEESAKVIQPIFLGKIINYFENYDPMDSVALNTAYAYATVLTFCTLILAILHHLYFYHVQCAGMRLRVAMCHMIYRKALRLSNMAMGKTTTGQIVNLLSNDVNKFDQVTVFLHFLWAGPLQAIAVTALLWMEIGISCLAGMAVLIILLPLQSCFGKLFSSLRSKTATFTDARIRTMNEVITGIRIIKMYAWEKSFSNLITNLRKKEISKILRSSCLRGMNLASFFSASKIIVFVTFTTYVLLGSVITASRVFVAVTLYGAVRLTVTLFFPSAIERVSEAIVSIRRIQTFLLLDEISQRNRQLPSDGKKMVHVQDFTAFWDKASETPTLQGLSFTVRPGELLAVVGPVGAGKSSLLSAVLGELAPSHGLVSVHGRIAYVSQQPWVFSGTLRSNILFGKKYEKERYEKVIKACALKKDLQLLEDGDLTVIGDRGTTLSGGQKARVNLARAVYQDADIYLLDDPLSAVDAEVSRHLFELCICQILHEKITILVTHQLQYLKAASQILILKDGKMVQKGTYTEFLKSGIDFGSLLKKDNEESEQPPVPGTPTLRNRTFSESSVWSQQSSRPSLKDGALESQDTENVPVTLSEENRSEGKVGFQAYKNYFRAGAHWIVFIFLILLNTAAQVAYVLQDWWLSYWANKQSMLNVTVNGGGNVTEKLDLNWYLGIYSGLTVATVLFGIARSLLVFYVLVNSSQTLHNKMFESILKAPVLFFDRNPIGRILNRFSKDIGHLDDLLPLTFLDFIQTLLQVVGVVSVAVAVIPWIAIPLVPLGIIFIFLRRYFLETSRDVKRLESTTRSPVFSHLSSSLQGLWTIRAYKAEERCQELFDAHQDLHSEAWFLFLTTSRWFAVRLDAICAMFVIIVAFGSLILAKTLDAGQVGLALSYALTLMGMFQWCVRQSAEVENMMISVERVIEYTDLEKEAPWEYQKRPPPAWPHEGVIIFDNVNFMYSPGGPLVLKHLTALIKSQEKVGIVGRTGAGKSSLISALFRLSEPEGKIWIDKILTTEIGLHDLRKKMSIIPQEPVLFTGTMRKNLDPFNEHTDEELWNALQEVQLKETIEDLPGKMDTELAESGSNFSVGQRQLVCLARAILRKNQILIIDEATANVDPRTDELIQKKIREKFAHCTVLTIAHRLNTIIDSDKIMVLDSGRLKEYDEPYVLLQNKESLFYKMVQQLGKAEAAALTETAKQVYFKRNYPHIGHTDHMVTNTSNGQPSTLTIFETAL
# [3] = molecular target: T2, ABCC3/MRP3 (Homo sapiens, UniProt O15438); assay: MRP3 vesicular transport: ATP- and benzbromarone-sensitive CDCF uptake into inverted HEK-293 membrane vesicles; format: biochemical; conditions: for ABCC3/MRP3 Type of effect: HEK-293 vesicles; for concentration at which MRP3 transport is inhibited: CDCF uptake
# T2 construct: purchased Solvo Biotechnology (Budapest, Hungary); host or cells: HEK-293 cells
# [4] = molecular target: T3, ABCC2/MRP2 (Homo sapiens, UniProt Q92887); assay: MRP2 vesicular transport: ATP-dependent CDCF uptake into inverted Sf9 membrane vesicles; format: biochemical; conditions: CDCF 5 µM, 37 °C, 10 min; for ABCC2/MRP2 Type of effect: Sf9 vesicles
# T3 construct: made in house; host or cells: Sf9 insect cells (baculovirus)
# [5] = molecular target: T4, NTCP/SLC10A1 (Homo sapiens, UniProt Q14973); assay: NTCP-dependent taurocholate uptake in NTCP-overexpressing HEK-293 cells; format: cell-based; conditions: for NTCP/SLC10A1 Type of effect: taurocholate 2 µM, 2 min, 37 °C, HEK-293 cells
# T4 construct: expressed in transfected cells; host or cells: HEK-293 cells, lentiviral transduction
# T4 sequence (Q14973 1-349): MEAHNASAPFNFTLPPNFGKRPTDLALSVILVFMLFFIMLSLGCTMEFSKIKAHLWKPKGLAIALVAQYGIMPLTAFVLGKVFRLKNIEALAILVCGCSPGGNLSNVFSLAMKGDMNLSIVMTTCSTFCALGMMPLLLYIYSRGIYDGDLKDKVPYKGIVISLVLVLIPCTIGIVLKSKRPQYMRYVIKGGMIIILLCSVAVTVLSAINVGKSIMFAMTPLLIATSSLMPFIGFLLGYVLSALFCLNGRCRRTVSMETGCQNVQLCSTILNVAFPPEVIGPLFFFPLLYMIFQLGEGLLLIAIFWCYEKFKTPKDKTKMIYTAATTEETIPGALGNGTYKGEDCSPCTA
# [6] = molecular target: T5, OCT1/SLC22A1 (Homo sapiens, UniProt O15245); assay: OCT1-dependent metformin uptake in OCT1-overexpressing HEK-293 cells; format: cell-based; conditions: for OCT1/SLC22A1 Type of effect: metformin 10 µM, 5 min, 37 °C, HEK-293 cells
# T5 construct: expressed in transfected cells; host or cells: HEK-293 cells, lentiviral transduction
# T5 sequence (O15245 1-554): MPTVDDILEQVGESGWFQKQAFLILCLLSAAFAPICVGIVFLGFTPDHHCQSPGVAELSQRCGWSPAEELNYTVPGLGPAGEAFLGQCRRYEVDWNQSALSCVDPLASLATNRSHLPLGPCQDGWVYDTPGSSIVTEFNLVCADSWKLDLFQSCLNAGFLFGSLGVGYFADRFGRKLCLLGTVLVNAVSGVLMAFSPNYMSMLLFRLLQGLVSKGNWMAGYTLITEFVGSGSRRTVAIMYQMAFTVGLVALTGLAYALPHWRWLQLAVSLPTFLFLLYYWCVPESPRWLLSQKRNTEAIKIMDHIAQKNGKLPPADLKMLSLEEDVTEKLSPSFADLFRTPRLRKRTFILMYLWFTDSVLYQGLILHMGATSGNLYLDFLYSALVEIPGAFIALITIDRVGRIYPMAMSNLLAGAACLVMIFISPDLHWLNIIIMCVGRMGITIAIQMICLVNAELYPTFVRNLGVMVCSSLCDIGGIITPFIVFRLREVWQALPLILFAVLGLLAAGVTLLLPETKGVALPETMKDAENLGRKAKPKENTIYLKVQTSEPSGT
# [7] = human, probe DHEAS (0.5 µM unlabeled plus 0.2 µCi radiolabeled)
# T3 sequence (Q92887 whole entry): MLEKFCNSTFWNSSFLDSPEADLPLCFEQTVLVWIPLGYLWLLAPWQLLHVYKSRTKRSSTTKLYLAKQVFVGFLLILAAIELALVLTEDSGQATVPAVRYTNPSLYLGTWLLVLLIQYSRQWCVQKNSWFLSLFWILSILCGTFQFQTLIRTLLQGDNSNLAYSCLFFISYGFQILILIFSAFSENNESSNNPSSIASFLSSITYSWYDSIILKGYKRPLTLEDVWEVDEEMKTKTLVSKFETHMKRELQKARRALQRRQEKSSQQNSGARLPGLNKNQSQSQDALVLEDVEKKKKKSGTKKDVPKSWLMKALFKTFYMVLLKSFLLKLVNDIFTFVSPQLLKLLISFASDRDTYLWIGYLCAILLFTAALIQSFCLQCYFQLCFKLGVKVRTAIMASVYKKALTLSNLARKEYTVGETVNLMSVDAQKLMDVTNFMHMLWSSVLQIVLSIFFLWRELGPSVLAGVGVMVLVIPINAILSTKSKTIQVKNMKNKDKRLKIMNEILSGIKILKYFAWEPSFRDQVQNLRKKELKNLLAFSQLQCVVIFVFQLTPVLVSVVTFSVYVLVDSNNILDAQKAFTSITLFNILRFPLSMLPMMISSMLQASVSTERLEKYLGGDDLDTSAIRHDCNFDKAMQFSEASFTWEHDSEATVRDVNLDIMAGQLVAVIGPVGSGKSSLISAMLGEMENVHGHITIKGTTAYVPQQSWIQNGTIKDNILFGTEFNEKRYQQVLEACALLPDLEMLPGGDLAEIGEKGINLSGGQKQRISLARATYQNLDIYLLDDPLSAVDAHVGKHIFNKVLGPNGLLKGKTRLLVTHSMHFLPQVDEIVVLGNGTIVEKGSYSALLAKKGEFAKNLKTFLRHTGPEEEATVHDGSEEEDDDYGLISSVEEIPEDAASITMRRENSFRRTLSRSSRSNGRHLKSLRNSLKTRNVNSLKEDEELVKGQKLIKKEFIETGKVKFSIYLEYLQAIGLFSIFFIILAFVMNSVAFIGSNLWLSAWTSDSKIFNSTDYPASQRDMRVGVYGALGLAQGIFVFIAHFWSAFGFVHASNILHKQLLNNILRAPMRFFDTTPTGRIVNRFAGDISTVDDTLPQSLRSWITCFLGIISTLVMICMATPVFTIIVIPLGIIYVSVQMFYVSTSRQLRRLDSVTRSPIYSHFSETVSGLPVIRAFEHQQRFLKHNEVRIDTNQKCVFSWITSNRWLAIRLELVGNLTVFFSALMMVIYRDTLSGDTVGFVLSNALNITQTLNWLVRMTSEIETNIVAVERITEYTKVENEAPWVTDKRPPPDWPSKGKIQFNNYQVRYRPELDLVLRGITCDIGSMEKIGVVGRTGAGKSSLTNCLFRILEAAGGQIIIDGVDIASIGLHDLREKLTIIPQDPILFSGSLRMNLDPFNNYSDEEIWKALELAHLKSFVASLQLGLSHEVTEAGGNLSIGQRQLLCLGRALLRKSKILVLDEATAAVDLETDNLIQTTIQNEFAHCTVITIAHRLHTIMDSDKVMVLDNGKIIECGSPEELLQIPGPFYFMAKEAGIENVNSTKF
# T2 sequence (O15438 whole entry): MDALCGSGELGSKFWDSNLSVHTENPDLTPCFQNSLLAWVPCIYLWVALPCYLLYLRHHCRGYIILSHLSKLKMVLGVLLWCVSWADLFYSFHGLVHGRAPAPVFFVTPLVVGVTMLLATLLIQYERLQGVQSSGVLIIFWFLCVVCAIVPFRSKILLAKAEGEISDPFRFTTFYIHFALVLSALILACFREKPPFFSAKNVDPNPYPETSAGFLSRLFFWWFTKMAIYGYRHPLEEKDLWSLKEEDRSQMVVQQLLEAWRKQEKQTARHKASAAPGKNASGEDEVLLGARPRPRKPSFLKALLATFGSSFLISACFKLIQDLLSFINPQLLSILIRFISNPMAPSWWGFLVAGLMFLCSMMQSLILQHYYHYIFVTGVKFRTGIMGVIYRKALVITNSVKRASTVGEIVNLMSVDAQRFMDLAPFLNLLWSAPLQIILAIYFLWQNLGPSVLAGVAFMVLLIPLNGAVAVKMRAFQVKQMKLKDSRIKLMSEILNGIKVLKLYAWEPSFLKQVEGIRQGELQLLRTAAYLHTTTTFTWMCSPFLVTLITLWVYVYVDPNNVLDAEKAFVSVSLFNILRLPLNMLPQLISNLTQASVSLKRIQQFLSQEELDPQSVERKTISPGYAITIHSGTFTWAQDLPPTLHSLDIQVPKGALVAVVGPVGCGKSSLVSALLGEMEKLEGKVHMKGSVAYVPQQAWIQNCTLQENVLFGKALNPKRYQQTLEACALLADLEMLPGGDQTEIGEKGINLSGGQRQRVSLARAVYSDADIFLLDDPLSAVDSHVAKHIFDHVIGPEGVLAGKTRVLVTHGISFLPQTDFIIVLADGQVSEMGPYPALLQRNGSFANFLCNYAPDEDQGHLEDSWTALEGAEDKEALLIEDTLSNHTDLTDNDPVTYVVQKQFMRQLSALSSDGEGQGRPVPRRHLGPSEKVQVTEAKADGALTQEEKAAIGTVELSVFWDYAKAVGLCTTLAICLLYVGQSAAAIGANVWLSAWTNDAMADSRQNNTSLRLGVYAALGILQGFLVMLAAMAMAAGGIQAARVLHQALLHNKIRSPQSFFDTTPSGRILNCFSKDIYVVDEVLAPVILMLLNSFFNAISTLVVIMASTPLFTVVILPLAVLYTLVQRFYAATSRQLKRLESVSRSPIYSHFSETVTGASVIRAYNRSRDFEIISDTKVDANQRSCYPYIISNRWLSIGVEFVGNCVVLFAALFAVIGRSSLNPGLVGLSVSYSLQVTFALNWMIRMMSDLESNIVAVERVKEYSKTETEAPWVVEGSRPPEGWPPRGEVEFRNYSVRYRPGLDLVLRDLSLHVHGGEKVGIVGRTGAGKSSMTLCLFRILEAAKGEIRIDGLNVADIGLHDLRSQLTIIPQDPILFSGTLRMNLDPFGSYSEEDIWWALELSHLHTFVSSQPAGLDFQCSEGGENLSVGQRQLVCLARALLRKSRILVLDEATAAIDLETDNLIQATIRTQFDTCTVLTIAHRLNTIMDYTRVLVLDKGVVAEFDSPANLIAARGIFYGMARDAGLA
Compound,peak plasma concentrations in vivo ([1]; Kaletra 400 mg lopinavir and 100 mg ritonavir in combination),ABCC4/MRP4 Type of effect [2],"inhibition at […] [2, 7]",IC50 [3],"ABCC3/MRP3 Type of effect ([3]; CDCF 5 µM, 37 °C, 10 min)",concentration at which MRP3 transport is inhibited [3],ABCC2/MRP2 Type of effect [4],IC50 [5],NTCP/SLC10A1 Type of effect [5],IC50 [6],OCT1/SLC22A1 Type of effect [6],"peak plasma concentration ([1]; 165 µg/kg IVE dose, ref FDA guideline for stromectol)","IC50 ([3]; approximate IC50, CDCF 5 µM, 37 °C, 10 min)",IC50 ([4]; approximate IC50),T1/2 ([1]; clearance from the human body),"Cmax ([1]; intravenous 100 mg, healthy adults, ref FDA label 214787Orig1s000)",IC50 [2],"IC50 at […] [2, 7]","inhibition at 50 µM ([5]; HEK293, read-out: NTCP inhibition)",concentration of strong inhibitory effect on OCT1 ([6]; metformin uptake)
"Cc1cccc(C)c1OCC(=O)N[C@@H](Cc1ccccc1)[C@@H](O)C[C@H](Cc1ccccc1)NC(=O)[C@H](C(C)C)N1CCCNC1=O [LOP, lopinavir]",11 to 20 µM,No effect,10 to 30%,> 40 µM,inh,> 20 µM,no such effect,≥ 50 µM,inh,> 50 µM,less inhibitory and inh,–,–,–,–,–,–,–,–,–
"CCC(C)C1OC2(CCC1C)CC1CC(CC=C(C)C(OC3CC(OC)C(OC4CC(OC)C(O)C(C)O4)C(C)O3)C(C)C=CC=C3COC4C(O)C(C)=CC(C(=O)O1)C34O)O2 (stereo not shown) [IVE, ivermectin]",–,No effect,–,–,inh,> 20 µM,strongly decreased the accumulation of the probe substrate and inh,–,only minor inhibition,–,no significant inhibitory action; also recorded: no effect,46 ng/mL,> 50 µM,≥ 20 µM,–,–,–,–,–,–
"CCC(CC)COC(=O)[C@H](C)N[P@](=O)(OC[C@H]1O[C@@](C#N)(c2ccc3c(N)ncnn23)[C@H](O)[C@@H]1O)Oc1ccccc1 [REM, remdesivir]",–,–,–,–,did not influence MRP3 transport at all; also recorded: did not inhibit; also recorded: No effect,–,did not inhibit but rather increased the probe substrate transport at high concentrations; also recorded: Increase,≥ 50 µM,inh,6.1 µM,strong inhibitory effect and inh,–,–,–,1.15 h,3.7 µM,2.9 µM,~2.3 µM,40 to 50%,below 10 µM
"NC(=O)c1nc(F)c[nH]c1=O [FAV, favipiravir]",–,–,10 to 30%,–,did not influence MRP3 transport at all,–,no such effect,–,only minor inhibition,–,no significant inhibitory action,–,–,–,–,–,–,–,–,–
